Measurements from patent US9359339B2, “Glucagon receptor antagonist compounds, compositions containing such compounds and methods of use” (Merck Sharp & Dohme Corp., priority 2009, dated 2016).

Target: human glucagon receptor (Homo sapiens (Human), UniProt P47871)
Experiment: Glucagon Receptor Binding Assay (125I-glucagon SPA, CHO cell membranes)
Settings: inhibition of 125I-Glucagon binding to membranes of CHO cells expressing cloned human glucagon receptor; more active isomer
Procedure: Glucagon Receptor Binding Assay
A stable CHO (Chinese hamster ovary) cell line expressing cloned human glucagon receptor was maintained as described (Chicchi, et. al. J Biol Chem 272, 7765-9 (1997); Cascieri, et. al. J Biol Chem 274, 8694-7 (1999)). To determine antagonistic binding affinity of compounds, 0.001-0.003 mg of cell membranes from these cells were pre-incubated with 0.100 mg WGA-coated PVT SPA beads (Amersham) for 20 minutes at room temperature in 25 μL of a buffer containing 50 mM Tris-HCl (pH 7.5), 5 mM MgCl2, 2 mM EDTA, 0.1% BSA and 3% glycerol in Costar 384 well plates with clear bottoms (#3706). Next, 25 μL of ^125I-Glucagon (New England Nuclear, MA) (1×10^−14 mol per well) and either 1 μL solutions of test compounds or 0.001 mM unlabeled glucagon or DMSO were added and mixed. After 4-12 hours incubation at room temperature, the radioactivity bound to the cell membranes was determined in a radioactive emission detection counter (Wallac-Microbeta). Data were analyzed using the Data Analyzer software program of Merck & Co., Inc. The IC50 values were calculated using non-linear regression analysis assuming single-site competition.

Chain of human glucagon receptor (P47871 26-477): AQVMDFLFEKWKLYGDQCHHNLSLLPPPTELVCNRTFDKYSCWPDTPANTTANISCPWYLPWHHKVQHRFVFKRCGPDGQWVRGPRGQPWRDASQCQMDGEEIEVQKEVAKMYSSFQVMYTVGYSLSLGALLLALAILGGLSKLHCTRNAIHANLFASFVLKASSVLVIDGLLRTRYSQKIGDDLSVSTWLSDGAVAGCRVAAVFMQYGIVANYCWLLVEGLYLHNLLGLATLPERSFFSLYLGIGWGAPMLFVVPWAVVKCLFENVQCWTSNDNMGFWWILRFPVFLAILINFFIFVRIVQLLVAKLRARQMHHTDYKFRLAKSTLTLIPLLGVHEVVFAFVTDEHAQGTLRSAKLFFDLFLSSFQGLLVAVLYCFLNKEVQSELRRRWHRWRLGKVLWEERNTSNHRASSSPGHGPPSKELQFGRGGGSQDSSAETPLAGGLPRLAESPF

SMILES	IC50 [nM]
CCC[C@H](c1ccc(C(=O)NCCC(=O)O)cc1)C(c1ccc(Cl)c(Cl)c1)c1csc2c(C#N)cc(Cl)cc12 (stereo partly drawn) [Example 21, N-(4-{(1S)-1-[(5-CHLORO-7-CYANO-1-BENZOTHIEN-3-YL)(3,4-DICHLOROPHENYL)METHYL]BUTYL}BENZOYL)-β-ALANINE]	0.7
CCC[C@H](c1ccc(C(=O)NCCC(=O)O)cc1)C(c1ccc(Cl)cc1)c1csc2c(C#N)cc(C)cc12 (stereo partly drawn) [Example 14, N-(4-{(1S)-1-[(5-METHYL-7-CYANO-1-BENZOTHIEN-3-YL)(4-CHLOROPHENYL)METHYL]BUTYL}BENZOYL)-β-ALANINE]	1.3
CCC[C@H](c1ccc(C(=O)NCCC(=O)O)cc1)C(c1ccc(Cl)cc1)c1csc2c(C)cc(Cl)cc12 (stereo partly drawn) [Example 6, N-(4-{(1S)-1-[(5-CHLORO-7-METHYL-1-BENZOTHIEN-3-YL)(4-CHLOROPHENYL)METHYL]BUTYL}BENZOYL)-β-ALANINE]	28
CCC[C@H](c1ccc(C(=O)Nc2nnn[nH]2)cc1)C(c1ccc(Cl)cc1)c1csc2c(Br)cc(C)cc12 (stereo partly drawn) [Example 3, 4-{(1S)-1-[(7-BROMO-5-METHYL-1-BENZOTHIEN-3-YL)(4-CHLOROPHENYL)METHYL]BUTYL}-N-1H-TETRAZOL-5-YLBENZAMIDE]	2.3
CCC[C@H](c1ccc(C(=O)NCCC(=O)O)cc1)C(c1ccc(Cl)cc1)c1sc2ccccc2c1C (stereo partly drawn) [Example 45, N-[4-((1S)-1-{(4-CHLOROPHENYL)[3-METHYL-1-BENZOTHIEN-2-YL]METHYL}BUTYL)BENZOYL]-β-ALANINE]	1.8
CCC[C@H](c1ccc(C(=O)NCCC(=O)O)cc1)C(c1ccc(Cl)cc1)c1csc2c(C#N)cc(C(F)(F)F)cc12 (stereo partly drawn) [Example 15, N-(4-{(1S)-1-[(5-TRIFLUOROMETHYL-7-CYANO-1-BENZOTHIEN-3-YL)(4-CHLOROPHENYL)METHYL]BUTYL}BENZOYL)-β-ALANINE]	1.7
CCCC[C@H](c1ccc(C(=O)NCCC(=O)O)cc1)C(c1ccc(Cl)cc1)c1csc2c(C#N)cc(Cl)cc12 (stereo partly drawn) [Example 29, N-(4-{(1S)-1-[(5-CHLORO-7-CYANO-1-BENZOTHIEN-3-YL)(4-CHLOROPHENYL)METHYL]PENTYL}BENZOYL)-β-ALANINE]	0.4
CCC[C@H](c1ccc(C(=O)NCCC(=O)O)cc1)C(c1ccc(OC(F)(F)F)cc1)c1csc2c(C#N)cc(Cl)cc12 (stereo partly drawn) [Example 25, N-(4-{(1S)-1-[(5-CHLORO-7-CYANO-1-BENZOTHIEN-3-YL)(4-TRIFLUOROMETHOXYPHENYL)METHYL]BUTYL}BENZOYL)-β-ALANINE]	0.1
CCC[C@H](c1ccc(C(=O)NCCC(=O)O)cc1)C(c1ccc(Cl)cc1)c1csc2c(C#N)cc(Cl)cc12 (stereo partly drawn) [Example 1, N-(4-{(1S)-1-[(5-CHLORO-7-CYANO-1-BENZOTHIEN-3-YL)(4-CHLOROPHENYL)METHYL]BUTYL}BENZOYL)-β-ALANINE]	6.2
CCC[C@H](c1ccc(C(=O)NCc2nn[nH]n2)cc1)C(c1ccc(Cl)cc1)c1csc2c(Br)cc(C)cc12 (stereo partly drawn) [Example 4, 4-{(1S)-1-[(7-BROMO-5-METHYL-1-BENZOTHIEN-3-YL)(4-CHLOROPHENYL)METHYL]BUTYL}-N-(2H-TETRAZOL-5-YLMETHYL)BENZAMIDE]	2.5
CCC[C@H](c1ccc(C(=O)NCCC(=O)O)cc1)C(c1ccc(Cl)cc1)c1c(C)sc2ccccc12 (stereo partly drawn) [Example 8, N-(4-{(1S)-1-[(2-METHYL-1-BENZOTHIEN-3-YL)(4-CHLOROPHENYL)METHYL]BUTYL}BENZOYL)-β-ALANINE]	2.2

Results, then the compound that gave them:

IC50 [nM]	SMILES
3.4	CCC[C@H](c1ccc(C(=O)NCCS(=O)(=O)O)cc1)C(c1ccc(Cl)cc1)c1csc2c(Br)cc(C)cc12 (stereo partly drawn) [Example 43, 2-[(4-{(1S)-1-[(5-METHYL-7-BROMO-1-BENZOTHIOPHEN-3-YL)(4-CHLOROPHENYL)METHYL]BUTYL}BENZOYL)AMINO]ETHANE SULFONIC ACID]
4.7	CCCC[C@H](c1ccc(C(=O)NCCC(=O)O)cc1)C(c1ccc(Cl)cc1)c1csc2c(-c3ccnn3C)cc(F)cc12 (stereo partly drawn) [Example 2, N-[4-((1S)-1-{(4-CHLOROPHENYL)[5-FLUORO-7-(1-METHYL-1H-PYRAZOL-5-YL)-1-BENZOTHIEN-3-YL]METHYL}PENTYL)BENZOYL]-β-ALANINE]
11.8	CCC[C@H](c1ccc(C(=O)NCC(F)(F)C(=O)O)cc1)C(c1ccc(Cl)cc1)c1csc2c(Br)cc(C)cc12 (stereo partly drawn) [Example 40, 3-[(4-{(1S)-1-[(5-METHYL-7-BROMO-1-BENZOTHIOPHEN-3-YL)(4-CHLOROPHENYL)METHYL]BUTYL}BENZOYL)AMINO]-2,2-DIFLUOROPROPANOIC ACID]
0.2	N#Cc1cc(Cl)cc2c(C(c3ccc(Cl)cc3)[C@H](CCC(F)(F)F)c3ccc(C(=O)NCCC(=O)O)cc3)csc12 (stereo partly drawn) [Example 27, N-(4-{(1S)-1-[(5-CHLORO-7-CYANO-1-BENZOTHIEN-3-YL)(4-CHLOROPHENYL)METHYL]-4,4,4-TRIFLUOROBUTYL}BENZOYL)-β-ALANINE]
1	CCCC[C@H](c1ccc(C(=O)NCCC(=O)O)cc1)C(c1ccc(Cl)cc1)c1csc2c(C#N)cc(Cl)cc12 (stereo partly drawn) [Example 32, N-(4-{(1S)-1-[(5-CHLORO-7-CYANO-1-BENZOTHIEN-3-YL)(4-CHLOROPHENYL)METHYL]-4-METHYLBUTYL}BENZOYL)-β-ALANINE]
7.8	CCC[C@H](c1ccc(C(=O)NCCC(=O)O)cc1)C(c1ccc(Cl)cc1)c1c(C)sc2c(C#N)cc(Cl)cc12 (stereo partly drawn) [Example 19, N-(4-{(1S)-1-[(2-METHYL-5-CHLORO-7-CYANO-1-BENZOTHIEN-3-YL)(4-CHLOROPHENYL)METHYL]BUTYL}BENZOYL)-β-ALANINE]
1.1	CCC[C@H](c1ccc(C(=O)NCCC(=O)O)cc1)C(c1ccc(Cl)cc1)c1csc2c(C#N)cc(F)cc12 (stereo partly drawn) [Example 13, N-(4-{(1S)-1-[(5-FLUORO-7-CYANO-1-BENZOTHIEN-3-YL)(4-CHLOROPHENYL)METHYL]BUTYL}BENZOYL)-β-ALANINE]
0.2	CCC[C@H](c1ccc(C(=O)NCCC(=O)O)cc1)C(c1ccc(OC(F)(F)F)cc1)c1csc2c(C#N)cc(C)cc12 (stereo partly drawn) [Example 23, N-(4-{(1S)-1-[(5-METHYL-7-CYANO-1-BENZOTHIEN-3-YL)(4-TRIFLUOROMETHOXYPHENYL)METHYL]BUTYL}BENZOYL)-β-ALANINE]
